Assay results reported in patent US20160207928A1, “NOVEL COMPOUNDS FOR THE TREATMENT OF CANCER” (BAYER PHARMA AKTIENGESELLSCHAFT, priority 2013, published 2016).

Target: T1, human kinase Mps-1 (Homo sapiens, UniProt P33981)
T1 construct: N-terminally GST-tagged human full length recombinant Mps-1 kinase; purchased Invitrogen, Karslruhe, Germany PV4071
T1 sequence (P33981 1-857): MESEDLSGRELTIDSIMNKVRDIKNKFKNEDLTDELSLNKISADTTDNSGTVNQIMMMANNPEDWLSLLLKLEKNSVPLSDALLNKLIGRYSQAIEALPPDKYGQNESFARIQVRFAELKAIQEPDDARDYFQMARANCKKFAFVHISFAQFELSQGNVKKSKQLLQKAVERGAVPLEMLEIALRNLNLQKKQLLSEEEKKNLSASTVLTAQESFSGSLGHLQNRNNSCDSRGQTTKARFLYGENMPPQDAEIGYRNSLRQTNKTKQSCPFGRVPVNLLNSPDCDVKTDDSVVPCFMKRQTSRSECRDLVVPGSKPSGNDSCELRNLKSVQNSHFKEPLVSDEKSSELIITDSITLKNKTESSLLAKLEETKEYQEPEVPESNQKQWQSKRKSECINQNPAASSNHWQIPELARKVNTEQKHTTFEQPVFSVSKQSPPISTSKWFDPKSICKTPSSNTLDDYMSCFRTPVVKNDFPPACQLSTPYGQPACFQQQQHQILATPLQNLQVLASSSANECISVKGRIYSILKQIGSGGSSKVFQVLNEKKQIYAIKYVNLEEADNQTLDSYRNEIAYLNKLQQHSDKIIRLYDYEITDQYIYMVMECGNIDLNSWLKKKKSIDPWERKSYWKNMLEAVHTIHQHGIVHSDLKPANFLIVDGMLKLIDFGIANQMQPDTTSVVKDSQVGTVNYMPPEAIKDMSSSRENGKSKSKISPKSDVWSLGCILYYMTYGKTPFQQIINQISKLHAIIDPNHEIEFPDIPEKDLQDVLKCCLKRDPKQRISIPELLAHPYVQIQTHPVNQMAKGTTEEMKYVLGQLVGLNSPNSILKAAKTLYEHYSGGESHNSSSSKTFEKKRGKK
Assay: Mps-1 kinase assay (TR-FRET, 10 μM ATP)
Format: biochemical
Conditions: N-terminally GST-tagged human full length recombinant Mps-1, read-out: Mps-1 Inhibition, IC50 (Assay with 10 μM ATP)
Description: The human kinase Mps-1 phosphorylates a biotinylated substrate peptide. Detection of the phosphorylated product is achieved by time-resolved fluorescence resonance energy transfer (TR-FRET) from Europium-labelled anti-phospho-Serine/Threonine antibody as donor to streptavidin Labelled with cross-linked allophycocyanin (SA-XLent) as acceptor. Compounds are tested for their inhibition of the kinase activity.
N-terminally GST-tagged human full length recombinant Mps-1 kinase (purchased from Invitrogen, Karslruhe, Germany, cat. no PV4071) was used. As substrate for the kinase reaction a biotinylated peptide of the amino-acid sequence PWDPDDADITEILG (C-terminus in amide form, purchased from Biosynthan GmbH, Berlin) was used.
For the assay 50 nl of a 100-fold concentrated solution of the test compound in DMSO was pipetted into a black low volume 384 well microtiter plate (Greiner Bio-One, Frickenhausen, Germany), 2 μl of a solution of Mps-1 in assay buffer [0.1 mM sodium-ortho-vanadate, 10 mM MgCl2, 2 mM DTT, 25 mM Hepes pH 7.7, 0.05% BSA, 0.001% Pluronic F-127] were added and the mixture was incubated for 15 min at 22° C. to allow pre-binding of the test compounds to Mps-1 before the start of the kinase reaction. Then the kinase reaction was started by the addition of 3 μl of a solution of […] (ATP, 16.7 μM=>final conc. in the 5 μl assay volume is 10 μM) and peptide substrate (1.67 μM=>final conc. in the 5 μl assay volume is 1 μM) in assay buffer and the resulting mixture was incubated for a reaction time of 60 min at 22° C. The concentration of Mps-1 in the assay was adjusted to the activity of the enzyme lot and was chosen appropriate to have the assay in the linear range, typical enzyme concentrations were in the range of about 1 nM (final conc. in the 5 μl assay volume). The reaction was stopped by the addition of 3 μl of a solution of HTRF detection reagents (100 mM Hepes pH 7.4, 0.1% BSA, 40 mM EDTA, 140 nM Streptavidin-XLent [#61GSTXLB, Fa. Cis Biointernational, Marcoule, France], 1.5 nM anti-phospho(Ser/Thr)-Europium-antibody [#AD0180, PerkinElmer LAS, Rodgau-Jügesheim, Germany].
The resulting mixture was incubated 1 h at 22° C. to allow the binding of the phosphorylated peptide to the anti-phospho(Ser/Thr)-Europium-antibody. Subsequently the amount of phosphorylated substrate was evaluated by measurement of the resonance energy transfer from the Europium-labelled anti-phospho(Ser/Thr) antibody to the Streptavidin-XLent. Therefore, the fluorescence emissions at 620 nm and 665 nm after excitation at 350 nm was measured in a Viewlux TR-FRET reader (PerkinElmer LAS, Rodgau-Jügesheim, Germany). The “blank-corrected normalized ratio” (a Viewlux specific readout, similar to the traditional ratio of the emissions at 665 nm and at 622 nm, in which blank and Eu-donor crosstalk are subtracted from the 665 nm signal before the ratio is calculated) was taken as the measure for the amount of phosphorylated substrate. The data were normalised (enzyme reaction without inhibitor=0% inhibition, all other assay components but no enzyme=100% inhibition).

| Structure (SMILES) | IC50 [nM] |
| --- | --- |
| N#Cc1c(F)cccc1Nc1nc2cnc(-c3ccc(NC(=O)Cc4ccc(F)cc4)cc3)cn2n1 [Example 2.2, N-(4-{2-[(2-cyano-3-fluorophenyl)amino][1,2,4]triazolo[1,5-a]pyrazin-6-yl}phenyl)-2-(4-fluorophenyl)acetamide] | ≤ 1 |
| COc1ccccc1Nc1nc2cnc(-c3cc(C)c(O)c(C)c3)cn2n1 [Example 3.8, 4-{2-[(2-methoxyphenyl)amino][1,2,4]triazolo[1,5-a]pyrazin-6-yl}-2,6-dimethylphenol] | 71.6 |
| Cc1cc(-c2cn3nc(Nc4ccccc4C#N)nc3cn2)cc(C)c1O [Example 3.1, 2-{[6-(4-hydroxy-3,5-dimethylphenyl)[1,2,4]triazolo[1,5-a]pyrazin-2-yl]amino}benzonitrile] | 33.5 |
| COc1cc(C(=O)N2CCOCC2)ccc1Nc1nc2ccc(-c3ccc(NC(=O)Cc4ccc(F)cc4)cc3)cc2s1 [Example 4.1, 2-(4-fluorophenyl)-N-[4-(2-{[2-methoxy-4-(morpholin-4-ylcarbonyl)phenyl]amino}-1,3-benzothiazol-6-yl)phenyl]acetamide] | ≤ 1 |
| CCNC(=O)c1cccc(-c2cn3nc(Nc4ccccc4C#N)nc3cn2)c1 [Example 3.4, 3-{2-[(2-cyanophenyl)amino][1,2,4]triazolo[1,5-a]pyrazin-6-yl}-N-ethylbenzamide] | 206 |
| N#Cc1ccccc1Nc1nc2cnc(-c3cccc(C(=O)NC4CCCCC4)c3)cn2n1 [Example 3.9, 3-{2-[(2-cyanophenyl)amino][1,2,4]triazolo[1,5-a]pyrazin-6-yl}-N-cyclohexylbenzamide] | 69 |
| N#Cc1ccccc1Nc1nc2cnc(-c3cccc(C(=O)NC4CCCC4)c3)cn2n1 [Example 3.5, 3-{2-[(2-cyanophenyl)amino][1,2,4]triazolo[1,5-a]pyrazin-6-yl}-N-cyclopentylbenzamide] | 35.4 |
| COc1cc(S(C)(=O)=O)ccc1Nc1nc2ccc(-c3ccc(NC(=O)Cc4ccc(F)cc4)cc3)cc2s1 [Example 4.2, 2-(4-fluorophenyl)-N-[4-(2-{[2-methoxy-4-(methylsulfonyl)phenyl]amino}-1,3-benzothiazol-6-yl)phenyl]acetamide] | 2.9 |
| Nc1nc2ccc(-c3ccc(NC(=O)Cc4ccc(F)cc4)cc3)cc2s1 [Example 4.3, N-[4-(2-amino-1,3-benzothiazol-6-yl)phenyl]-2-(4-fluorophenyl)acetamide] | 8.6 |
| N#Cc1c(F)cccc1Nc1nc2cnc(-c3ccc(NC(=O)Cc4ccc(F)c(F)c4)cc3)cn2n1 [Example 2.7, N-(4-{2-[(2-cyano-3-fluorophenyl)amino][1,2,4]triazolo[1,5-a]pyrazin-6-yl}phenyl)-2-(3,4-difluorophenyl)acetamide] | 2.9 |

Other lines, results leading:

| IC50 [nM] | Structure (SMILES) |
| --- | --- |
| 2.1 | N#Cc1ccccc1Nc1nc2cnc(-c3ccc(NC(=O)Cc4ccc(F)c(F)c4)cc3)cn2n1 [Example 2.6, N-(4-{2-[(2-cyanophenyl)amino][1,2,4]triazolo[1,5-a]pyrazin-6-yl}phenyl)-2-(3,4-difluorophenyl)acetamide] |
| 2.6 | N#Cc1ccccc1Nc1nc2cnc(-c3ccc(NC(=O)Cc4ccccc4)cc3)cn2n1 [Example 2.3, N-(4-{2-[(2-cyanophenyl)amino][1,2,4]triazolo[1,5-a]pyrazin-6-yl}phenyl)-2-phenylacetamide] |
| 22.4 | N#Cc1ccccc1Nc1nc2cnc(-c3ccc(NC(=O)CC4CC4)cc3)cn2n1 [Example 3.2, N-(4-{2-[(2-cyanophenyl)amino][1,2,4]triazolo[1,5-a]pyrazin-6-yl}phenyl)-2-cyclopropylacetamide] |
| 443 | N#Cc1ccccc1Nc1nc2cnc(-c3ccc(N)cc3)cn2n1 [Example 3.7, 2-{[6-(4-aminophenyl)[1,2,4]triazolo[1,5-a]pyrazin-2-yl]amino}benzonitrile] |
| 14.6 | N#Cc1c(F)cccc1Nc1nc2cnc(-c3ccc(NC(=O)CC4CC4)cc3)cn2n1 [Example 3.6, N-(4-{2-[(2-cyano-3-fluorophenyl)amino][1,2,4]triazolo[1,5-a]pyrazin-6-yl}phenyl)-2-cyclopropylacetamide] |
